The text below walks through data of patent publication US9518988B2, “Antibodies and methods of using same for treating ErbB/ErbB ligands associated diseases” (Yeda Research and Development Co. Ltd., priority 2010, dated 2016).

The test system of test [1] is BxPC3 pancreatic tumor cells. The test can be described thus: Cell proliferation assay (MTT), BxPC3. It counts as cell-based, human. The following applies: gemcitabine 50 mg/ml. Here is the method: (§1) FIGS. 4A-B depict effective inhibition of proliferation and tumorigenicity (in vitro and in vivo) of human pancreatic cancer cells by a combination of anti-TGFα and anti-HB-EGF mAbs. […] BxPC3 cells (2×10^4) were seeded in a 96-well plate and allowed to adhere overnight, prior to the addition of anti-TGFα or anti-HB-EGF mAbs (each at 30 μg/ml), or a mixture of both mAbs (each at 15 μg/ml). Cell proliferation was determined in hexaplicates after 96 hours using the MTT method. Averages±S.D. are shown. The experiment was repeated twice. […] Female nude mice (6 week old) were inoculated subcutaneously with 2×10^6 BxPC3 cells. […]
(§2) FIGS. 5A-B depict effective inhibition of human pancreatic cancer cell growth (in vitro and in vivo) by a combination of two mAbs and chemotherapy. […] Of note, body weight monitoring detected no consistent trends and differences other than a slow gain of weight (data not shown).
BxPC3 pancreatic tumor cells were plated on 96-well plates (2,000 cells/well), in hexaplicates. […] Proliferation was measured after 24, 48 and 72 hours using the MTT method as was previously described [Mossmann T. J., Immunol Methods. […] Absorbance was determined at 570 nm.
BxPC3 pancreatic tumor cells were plated on 96-well plates (2,000 cells/well), in hexaplicates. […] Proliferation was measured after 24, 48 and 72 hours using the MTT method. […] Absorbance was determined at 570 nm.

Test [2] deals with BxPC3 xenografts. The test can be described thus: Anti-tumor activity in nude mice, BxPC3 xenografts. It counts as in vivo. The following applies: two intraperitoneal injections (days 16 and 21), 150 mg/kg body weight. Here is the method:
as §1, §2
(§3) Female atymic NCr-nude mice (6 week old; Harlen, Israel) were inoculated subcutaneously with 2×10^6 human cancer cells. […] Tumor volumes were monitored twice a week, and body weights were measured once a week.
as §3

The subject of test [3] is EGFR phosphorylation on tyrosine residues. The test can be described thus: Biological activity of purified recombinant ligands: EGFR phosphorylation on tyrosine residues. The following applies: TRX-TGFα 2, 20, 200 ng/ml; TRX-HB-EGF 3, 30, 300 ng/ml; 10 minute incubation. The test is classed as cell-based. As to the method: FIGS. 1A-E depict construction, expression and biological activity of recombinant EGF-like ligands and detection of TGFα blocking antibodies using a GPI-anchored TGFα. […] Residue numbers are indicated. […] Molecular weight markers are indicated in kilodaltons. […] Cells were seeded in a 24-well plate, washed and incubated with increasing concentrations of the purified fusion proteins (TRX-TGFα: 2, 20, 200 ng/ml; TRX-HB-EGF: 3, 30, 300 ng/ml). EGF (10 ng/ml) was used as a positive control. After 10 minute incubation, the cells were lysed, and cleared extracts were immunoblotted (IB) with an anti-phosphotyrosine (P-Tyr) antibody. […] Residue numbers refer to TGFα. Cysteine residues of the EGF-like domain are highlighted. […] Cells were seeded in a 24-well plate, washed and incubated with or without TGFα (5 ng/ml), and with increasing volumes of an anti-serum from TGFα-immunized mice (0.2, 2, 4, 6, 8 and 10 μl of serum diluted in 120 μl total; control: 10 μl serum from a naive animal). An anti-phosphotyrosine mAb was used to detect phosphorylated EGFR.
Cells were seeded in a 24-well plate. Twenty-four hours later, cells were washed and incubated with different agents. After ten minutes of incubation, the cells were lysed and cleared extracts were electrophoresed, then immunoblotted with an anti-phosphotyrosine mAb, an anti-EGFR mAb (HeLa) or with an anti-ErbB-3 mAb (T47D).

For `Nc1ccn([C@@H]2O[C@H](CO)[C@@H](O)C2(F)F)c(=O)n1` [gemcitabine], the “growth inhibition of cultured BxPC3 cells (MTT), gemcitabine alone” value in test [1] was “growth inhibitory effect”. In addition, in test [2], the “inhibition of tumor growth, BxPC3 xenografts” value is “more than 85%”.
As for “TGFα: EGF-like domain of TGFα expressed in bacteria as thioredoxin (TRX) fusion protein, used as immunogen”, the “ability to induce EGFR phosphorylation on tyrosine residues” value in test [3] was “functionally active conformation”.

B1: HB-EGF: EGF-like domain of HB-EGF expressed in bacteria as thioredoxin (TRX) fusion protein, used as immunogen (protein)
chain: DLQEADLDLLRVTLSSKPQALATPNKEEHGKRKKKGKGLGKKRDPCLRKYKDFCIHGECKYVKELRAPSCICHPGYHGERCHGLSL
Take B1: the “ability to induce EGFR phosphorylation on tyrosine residues” value in test [3] is recorded as “functionally active conformation”.
